Measurements: patent US7186695B2 (priority 2001, dated 2007)
“Also recorded” adds a separate entry of the source. Where two headings read alike, the source gives them in different places.

How the values were obtained:
[1] = Binding of GSAO to dithiols, loss of thiols in DTNB assay
Procedure: FIG. 11. Titration of DMP or cysteine with GSAO. DMP (15 μM corresponding to 30 μM thiols) is or cysteine (28 μM) was incubated with GSAO (0–50 μM) for 10 minutes. DTNB (950 μM) was then added and the reactions incubated for a further 10 minutes. The concentration of thiol in the reactions was determined from the absorbance of the TNB dianion at 412 nm.
FIG. 12. Interaction of GSAO with synthetic. Deptide and protein dithiols. DMP (A) (15 μM), 6,8-thioctic acid (B) ([…]), dithiothreitol (C) (8.5 μM), TrpCysGlyProCysLys (D) (4.6 μM), TrpCysGlyHisCysLys (E) (5.5 μM) or thioredoxin (F) (4.1 μM corresponding to 20.6 μM thiols) was incubated with GSAO (0–56 μM) for 10 minutes. […] The concentration of thiol in the reactions was determined from the absorbance of the TNB dianion at 412 nm. […]
(§1) A stock solution of DMP (5 μL, 50 μmol) was dissolved in DMSO (995 μL), giving a concentration of 50 mM DMP. […] The activity of the arsenical could then be determined by the titration of varying amounts of arsenical against the DMP working solution (10 μL) in a 96-well microbitre plate, with the total volume made up to 195 μL by addition of buffer. […] The absorbance at 412 nm due to the formation of the TNB dianion was measured using a Molecular Devices Thermomax Plus (Palo Alto, Calif.) microplate reader. […]
(§2) Binding of GSAO to dithiols was measured from loss of thiols using the DTNB assay described above. […]

[2] = as above; conditions: errors are 1 SD, read-out: Dissociation Constant
Procedure: FIG. 12. Interaction of GSAO with synthetic. Deptide and protein dithiols. DMP (A) (15 μM), 6,8-thioctic acid (B) ([…]), dithiothreitol (C) (8.5 μM), TrpCysGlyProCysLys (D) (4.6 μM), TrpCysGlyHisCysLys (E) (5.5 μM) or thioredoxin (F) (4.1 μM corresponding to 20.6 μM thiols) was incubated with GSAO (0–56 μM) for 10 minutes. DTNB (950 μM) was then added and the reactions incubated for a further 10 minutes. The concentration of thiol in the reactions was determined from the absorbance of the TNB dianion at 412 nm. The solid lines represent the best non-linear least squares fit of the data to Equation 1 (A to E) or Equation 2 (F) and have been drawn using the parameter estimates in Table 1. […]
as §1, §2

[3] = biological target: T1, TrpCysGlyHisCysLys (PDI active site hexapeptide) (Homo sapiens, UniProt P07237); experiment: as above
T1 construct: purchased Auspep, Parkville, Australia; host or cells: synthetic peptide
Procedure: (§3) FIG. 12. Interaction of GSAO with synthetic. Deptide and protein dithiols. DMP (A) (15 μM), 6,8-thioctic acid (B) ([…]), dithiothreitol (C) (8.5 μM), TrpCysGlyProCysLys (D) (4.6 μM), TrpCysGlyHisCysLys (E) (5.5 μM) or thioredoxin (F) (4.1 μM corresponding to 20.6 μM thiols) was incubated with GSAO (0–56 μM) for 10 minutes. DTNB (950 μM) was then added and the reactions incubated for a further 10 minutes. The concentration of thiol in the reactions was determined from the absorbance of the TNB dianion at 412 nm. The solid lines represent the best non-linear least squares fit of the data to Equation 1 (A to E) or Equation 2 (F) and have been drawn using the parameter estimates in Table 1. The dotted line in part A represents a simulated titration assuming an infinite affinity of GSAO for the dithiol. GSAO bound to both synthetic, peptide and protein dithiols with dissociation constants in the range 130 nM to 1.4 μM.
(§4) A stock solution of DMP (5 μL, 50 μmol) was dissolved in DMSO (995 μL), giving a concentration of 50 mM DMP. A second dilution of the 50 mM DMP stock solution (10 μL) in pH 7.0 buffer (0.1 M HEPES, 0.3 M NaCl, 1 mM EDTA) (990 μL) gave a working solution of 500 ? M DMP. The activity of the arsenical could then be determined by the titration of varying amounts of arsenical against the DMP working solution (10 μL) in a 96-well microbitre plate, with the total volume made up to 195 μL by addition of buffer. After a 10 minute incubation at room temperature, during which time the solutions were agitated on a plate shaker, 5 μL of a 37.9 mM stock solution of DTNB (15 mg) in DMSO (1 mL) was added, and the plate incubated with shaking for another 10 minutes. The absorbance at 412 nm due to the formation of the TNB dianion was measured using a Molecular Devices Thermomax Plus (Palo Alto, Calif.) microplate reader. The extinction coefficient for the TNB dianion at pH 7.0 is 14,150 M^−1cm^−1 at 412 nm (Riddles et al., 1983).
(§5) Recombinant human thioredoxin produced in E. coli was from American Diagnostica, Greenwich, Conn. The hexapeptides, TrpCysGlyProCysLys (SEQ ID NO: 1) and TrpCysGiyHisCysLys (SEQ ID NO: 2), were from Auspep, Parkville, Australia.
(§6) Binding of GSAO to dithiols was measured from loss of thiols using the DTNB assay described above. The dissociation constant, Kd, for GSAO binding to dithiols was determined by incubating increasing concentrations of GSAO, I, with a fixed dithiol concentration, [S]T, and measuring the remaining dithiol using DTNB. Note that the concentration of dithiol equals half the TNB concentration. The concentration of dithiol.GSAO complex, SI, as a function of the total GSAO concentration, [I]T, is described by Equation 1 (Hogg and Jackson, 1990), [SI]=0.5.{([S]T+x.[I]T+Kd)−(([S]T+x.[I]T+Kd)^2−4.[S]T.x.[I]T)^0.5} (1) […]

[4] = biological target: T2, TrpCysGlyProCysLys (thioredoxin active site hexapeptide) (Homo sapiens, UniProt P10599); experiment: as above
T2 construct: purchased Auspep, Parkville, Australia; host or cells: synthetic peptide
Procedure: as §3, §4, §5, §6

adherent BAE cells = experiment: Membrane permeability, tritiated GSAO in cytosol; type: in vitro ADME, bovine; conditions: 50 μM GSAO, 1 hour
Procedure: Human T cells (A3.01) or adherent BAE cells were incubated with complete medium containing 50 μM GSAO and ˜100,000 counts per minute of tritiated GSAO for 1 or 72 hours. Tritiated GSAO was prepared exactly as described for GSAO except that glycine-2-^3H-glutathione (NEN, Boston, Mass.) was used in place of cold glutathione. The cells were washed and lysed by two cycles of freezing and thawing. The cytosolic constituents were collected by differential centrifugation (Ausbel et al., 2000) and the tritiated GSAO was measured. Only 0.5% of the total tritiated GSAO was found in the T cell cytosol and 0.04% in the BAE cytosol after 1 hour. Moreover, only 4.5% of the GSAO penetrated the T cell membrane after 72 hours of culture.

[5] = test system: adjuvant-induced arthritis, rat ankles; conditions: in vivo
[6] = test system: adjuvant-induced arthritis; conditions: rat, in vivo
[7] = Dissociation Constant, ring size 15, errors are 1 SD
[8] = dissociation constant, approximate value

| Structure (SMILES) | effect on BAE viability (BAE cells) | interaction of GSAO with DMP in DTNB titration ([1]; DMP 15 μM, GSAO 0–50 μM, 10 minutes) | Kd ([1]; ring size 5, errors are 1 SD, read-out: Dissociation Constant) | Kd ([2]; ring size 6) | Kd ([2]; ring size 7) | Kd [3, 7] | Kd [3, 8] | Kd [4, 7] | Kd [4, 8] | total tritiated GSAO found in the cytosol (adherent BAE cells) | pannus formation [5] | periarticular inflammation (density of inflammatory cells) [5] | signs of new bone formation (periosteal reaction) [5] | development of arthritis measured by arthritis severity score, gait, paw volume or weight loss [6] | signs or symptoms of toxicity for the rats [6] | weight gain, GSCA vs GSAO treated rats ([6]; 2 mg/kg) |
| --- | --- | --- | --- | --- | --- | --- | --- | --- | --- | --- | --- | --- | --- | --- | --- | --- |
| N[C@@H](CCC(=O)N[C@@H](CSCC(=O)Nc1ccc([As](=O)(O)O)cc1)C(=O)NCC(=O)O)C(=O)O [GSAA, 4-(N-(S-glutathionylacetyl)amino)phenylarsonic acid, reference compound] | no significant effect | – | – | – | – | – | – | – | – | – | – | – | – | – | – | – |
| NC(CCC(=O)NC(CSCC(=O)Nc1ccc([As]=O)cc1)C(=O)NCC(=O)O)C(=O)O (stereo not shown) [GSAO, 4-(N-(S-glutathionylacetyl)amino)-phenylarsenoxide] | – | bound to DMP and prevented interaction of the dithiol with DTNB | 130 nM | 200 ± 50 nM | 420 nM | 870 ± 270 nM | ~1000 nM | 1420 nM | ~1000 nM | 0.04% | significantly reduced; also recorded: little to no pannus formation | significantly reduced; also recorded: almost no inflammatory cells | none | effectively blocked | no signs or symptoms of toxicity | no difference in weight gain |
